Test results as given in paper PMC6378654 (Journal of Medicinal Chemistry, 2019).
pIC50: −log10 of the molar value. Read-outs that look alike come from different tables or passages of the source.

Experiments:
[1] = molecular target: T1, human proteasome subunit β2c (Homo sapiens, UniProt Q99436); test: Competitive ABPP in Raji cell lysates; type: biochemical; conditions: for pIC50: read-out: Apparent IC50 β2c
T1 sequence (Q99436 44-277): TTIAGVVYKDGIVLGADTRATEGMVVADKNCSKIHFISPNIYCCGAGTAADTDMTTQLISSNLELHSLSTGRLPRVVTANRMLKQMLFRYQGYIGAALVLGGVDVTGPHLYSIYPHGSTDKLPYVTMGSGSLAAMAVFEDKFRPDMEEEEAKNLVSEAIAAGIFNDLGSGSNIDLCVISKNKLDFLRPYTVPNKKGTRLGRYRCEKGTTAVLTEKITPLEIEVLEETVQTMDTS

[2] = molecular target: T2, human proteasome subunit β2i (Homo sapiens, UniProt P40306); test: Competitive ABPP in Raji cell lysates; type: biochemical; conditions: LU-002i 3 μM, LU-002c 0.3 μM, LU-102 1 μM, Figure 4B
T2 sequence (P40306 40-273): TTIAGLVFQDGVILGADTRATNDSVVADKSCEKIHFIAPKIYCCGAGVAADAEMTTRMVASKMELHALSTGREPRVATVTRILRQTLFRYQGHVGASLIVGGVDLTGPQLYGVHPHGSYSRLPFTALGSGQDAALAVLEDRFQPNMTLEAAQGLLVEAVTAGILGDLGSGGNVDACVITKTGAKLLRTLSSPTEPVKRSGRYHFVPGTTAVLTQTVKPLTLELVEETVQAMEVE

β2i = molecular target: T3, β2i (Homo sapiens, UniProt P40306); test: ABPP assay with probe 97 in Raji cell lysates; type: biochemical; conditions: for labeling of β2i by probe 97 after preincubation with inhibitor: LU-002i at 3 μM, LU-002c at high concentrations, Figure 4B
T3 sequence (P40306 40-273): T2 sequence (P40306 40-273)

[3] = test system: human proteasome subunit β2c; test: Competitive ABPP in Raji cell lysates; type: biochemical
[4] = Solubility in aqueous solutions; type: physicochemical; conditions: stated in words

## CC(C)C[C@H](NC(=O)c1cnccn1)C(=O)N[C@@H](CC(C)C)C(=O)N[C@H](/C=C/S(C)(=O)=O)Cc1ccc(CN)cc1 [Compound 7]
[1]; initial screening
  decreased potency for β2c compared to LU-102: 23 fold

## COc1ccc(C[C@H](NC(=O)[C@H](C)NC(=O)CN2CCOCC2)C(=O)N[C@@H](CCC2CCCCC2)C(=O)[C@@]2(C)CO2)cc1 [Compound 39, Morp-Ala-Tyr(Me)-HomoCha-EK]
[1]; Raji cell lysates, wider range of final concentrations, Table 5
  pIC50: 5.60

## COc1ccc(C[C@H](NC(=O)[C@H](C)NC(=O)CN2CCOCC2)C(=O)N[C@@H](C[C@@H]2CCCc3ccccc32)C(=O)[C@@]2(C)CO2)cc1 [Compound 71, Morp-Ala-Tyr(Me)-1-(S)-TetraNal-EK]
[1]; Raji cell lysates, Table 6
  pIC50: < 4.00

## CC(C)C[C@H](NC(=O)[C@H](Cc1ccccc1)N=[N+]=[N-])C(=O)N[C@@H](C)C(=O)N[C@H](/C=C/S(C)(=O)=O)Cc1ccc(CN)cc1 [Compound 4]
[2]
  β2i labeling by the three-probe mixture after inhibitor treatment: partially inhibited
β2i
  labeling of β2i by probe 97 after preincubation with inhibitor: partially reduced
[1]; Raji cell lysates, LU-002c 0.3 μM, LU-102 1 μM, Figure 4B
  β2c labeling by the three-probe mixture after inhibitor treatment: completely prevented

## Cc1ncc(C(=O)N[C@@H](CC2CCCCC2)C(=O)N[C@@H](CC2CCCCC2)C(=O)N[C@H](/C=C/S(C)(=O)=O)Cc2ccc(CN)cc2)s1 [Compound 36]
[3]; initial screening (Table 1)
  selectivity for β2c over β2i: 10.5 fold

## COc1ccc(C[C@H](NC(=O)[C@H](C)NC(=O)CN2CCOCC2)C(=O)N[C@@H](C[C@@H]2CCCC3CCCCC32)C(=O)[C@@]2(C)CO2)cc1 (stereo partly shown) [Compound 77, Morp-Ala-Tyr(Me)-1-DecAla-EK]
[1]; Raji cell lysates, Table 6
  pIC50: 4.55

## CC1=CC(C)=N/C1=C(/CCCCc1cn(CCOc2ccc(C[C@H](NC(=O)[C@H](C)NC(=O)CN3CCOCC3)C(=O)N[C@@H](CC3CCCC4CCCCC43)C(=O)[C@@]3(C)CO3)cc2)nn1)c1c(C)cc(C)n1B(F)F (stereo partly shown) [Compound 97, Morp-Ala-Tyr(O–C2H4-BODIPY(FL))-1-DecAla-EK]
β2i; final concentration of 3 μM, Figure 4A
  β2i labeling by ABP 97: selective

## COc1ccc(C[C@H](NC(=O)[C@H](C)NC(=O)CN2CCOCC2)C(=O)N[C@@H](C[C@H]2CCCC3CCCCC32)C(=O)[C@@]2(C)CO2)cc1 (stereo partly shown) [Compound 74, Morp-Ala-Tyr(Me)-1-DecAla-EK]
[1]; Raji cell lysates, Table 6
  pIC50: < 4.00

## COc1ccc(C[C@H](NC(=O)[C@H](C)NC(=O)CN2CCOCC2)C(=O)N[C@@H](C[C@H]2CCCc3ccccc32)C(=O)[C@@]2(C)CO2)cc1 [Compound 68, Morp-Ala-Tyr(Me)-1-(R)-TetraNal-EK]
[1]; Raji cell lysates, Table 6
  pIC50: < 4.00

## CC(C)C[C@H](NC(=O)[C@H](Cc1ccccc1)N=[N+]=[N-])C(=O)N[C@@H](CC(C)C)C(=O)N[C@H](/C=C/S(C)(=O)=O)Cc1ccc(CN)cc1 [Compound 1, reference compound]
β2i
  labeling of β2i by probe 97 after preincubation with inhibitor: completely abolished

## COc1ccc(C[C@H](NC(=O)[C@H](C)NC(=O)CN2CCOCC2)C(=O)N[C@@H](CC2CCCC3CCCCC32)C(=O)[C@@]2(C)CO2)cc1 (stereo partly shown) [Compound 5]
[4]
  solubility in aqueous solutions: poorly soluble

## COc1ccc(C[C@H](NC(=O)[C@H](C)NC(=O)CN2CCOCC2)C(=O)N[C@@H](C[C@H]2CCC[C@@H]3CCCC[C@@H]32)C(=O)[C@@]2(C)CO2)cc1 [Compound 86, Morp-Ala-Tyr(Me)-1-DecAla-EK]
[1]; Raji cell lysates, Table 6
  pIC50: < 4.00

## COC[C@H](NC(=O)[C@H](CC(C)C)NC(=O)c1cnc(C)s1)C(=O)N[C@H](/C=C/S(C)(=O)=O)Cc1ccc(CN)cc1 [Compound 20]
[3]; Raji cell extracts, wider range of concentrations (Table 2)
  selectivity for β2c over β2i: ≥ 27 fold
[3]; initial screening (Table 1)
  selectivity for β2c over β2i: 14 fold
